Several values for one entry are separate records, joined by “and”; a condition that tells them apart may be missing. Equal values may be shown once.
Tested on: Sarcoma 180 cells
Assay: Pharmacological activity testing in mice with sarcoma 180
Assay type: in vivo, ddy strain male mice
Details: 100 mg/kg intraperitoneally once daily for 11 days
Description: Pharmacological activity testing in mice with sarcoma 180
Sarcoma 180 cells (1.16 X 10⁷ cells/animal) were transplanted into groups of 8 ddy strain male mice (5 to 6 weeks of age) subcutaneously at the back on the right side of the body. In one group, the compound S- (α ,β -dicarboxyethyl)glutathione (hereinafter referred to as "DCE-GS" for short) in the forms of a 1.0% (w/v) injectable solution (pH 6.5; isotonized with sodium chloride) was intraperitoneally administered to the animals in a volume corresponding to the dose of 100 mg/kg once daily for 11 days. The control group was intraperitoneally given the same volume of physiological saline once daily for the same period. On day 12, the animals were sacrificed, the tumor was excised from each animal and weighed.

Structure (SMILES): N[C@@H](CCC(=O)N[C@@H](CSC(CC(=O)O)C(=O)O)C(=O)NCC(=O)O)C(=O)O (stereo partly drawn) [DCE-GS, S-(α ,β -Dicarboxyethyl)glutathione]
- Tumor growth inhibition (day 12, versus physiological saline group): Tumor growth inhibition = (3.45 - 1.79)/3.45 X 100 = 48.1%
- Tumor weights (Mean) (sarcoma 180 transplanted subcutaneously, day 12, mean of 8 mice, physiological saline group 3.45± 0.42): 1.79 ± 0.14 g
- Tumor weights (individual animals) (sarcoma 180 transplanted subcutaneously, tumor excised and weighed on day 12, individual No. 1-8, 100 mg/kg): 2.48 g and 1.92 g and 2.09 g and 1.47 g and 1.95 g and 1.11 g and 1.62 g and 1.69 g

Reference: patent publication EP0420121A1, “Antitumor composition” (Senju Pharmaceutical Co., Ltd., priority 1989, dated 1991)
